Source: ChEMBL document CHEMBL1201862, “PubChem BioAssay data set” (2004)
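All cell lines were grown in 96-well plates and treated with compound for 48 hours. GI50: concentration for 50% inhibition of growth.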 Active and inactive are the calls of the source. Cut-off read from the data, not from the text of the source: active = GI50 up to about 1.1 µM and inactive = higher.

What was measured:
Assay in all cases: inhibition of tumour cell growth, NCI panel, 48 h
[1] = system: HCT-15
[2] = system: ACHN
[3] = system: SF-539
[4] = system: IGROV-1
[5] = system: A549
[6] = system: SNB-75
[7] = system: UACC-257
[8] = system: SR
[9] = system: U-251
[10] = system: NCI-H460
[11] = system: OVCAR-8
[12] = system: LOX IMVI
[13] = system: MOLT-4
[14] = system: MDA-MB-435
[15] = system: CCRF-CEM
[16] = system: DU-145
[17] = system: CAKI-1
[18] = system: A498
[19] = system: Hs-578T

Row | Compound | GI50 [1] | GI50 [2] | GI50 [3] | GI50 [4] | GI50 [5] | GI50 [6] | GI50 [7] | GI50 [8] | GI50 [9] | GI50 [10] | GI50 [11] | GI50 [12] | GI50 [13] | GI50 [14] | GI50 [15] | GI50 [16] | GI50 [17] | GI50 [18] | GI50 [19]
1 | CC(=O)OC1(C(C)=O)CC2(c3ccccc3)OC1(c1ccccc1)c1ccccc12 (stereo unspecified) | 6.38 µM | 16.6 µM (inactive) | 32 µM (inactive) | 4.91 µM (inactive) | 25.3 µM (inactive) | 59.6 µM (inactive) | 4.1 µM (inactive) | 6.56 µM (inactive) | 18.2 µM (inactive) | 10.4 µM (inactive) | 34.6 µM (inactive) | 16.4 µM (inactive) | 5.81 µM (inactive) |  |  |  |  |  | 
2 | NCCCOCC(=O)O | > 100 µM | > 100 µM (inactive) | > 100 µM (inactive) | > 100 µM (inactive) | > 100 µM (inactive) | > 100 µM (inactive) | > 100 µM (inactive) | > 100 µM (inactive) | > 100 µM (inactive) |  | > 100 µM (inactive) |  | > 100 µM (inactive) |  |  |  |  |  | 
3 | CCOC(=O)CCc1c(C(=O)OCC)[nH]c(/C=C2\NC(=O)C(C)=C2CC)c1C | 26.1 µM | 15.5 µM (inactive) | 27.9 µM (inactive) | 4.59 µM (inactive) | 40.1 µM (inactive) | 13.5 µM (inactive) |  |  | 15.3 µM (inactive) | 44.3 µM (inactive) | 5.83 µM (inactive) | 22.5 µM (inactive) | > 100 µM (inactive) | > 100 µM (inactive) | > 100 µM (inactive) | 19.3 µM (inactive) | 24.3 µM (inactive) |  | 
4 | O=C1CC(c2cccc(Cl)c2)n2cccc21 (stereo unspecified) | > 100 µM | > 100 µM (inactive) | > 100 µM (inactive) |  | > 100 µM (inactive) | 47.8 µM (inactive) | > 100 µM (inactive) | 90.2 µM (inactive) | > 100 µM (inactive) |  | > 100 µM (inactive) | > 100 µM (inactive) | 70 µM (inactive) | > 100 µM (inactive) | > 100 µM (inactive) | > 100 µM (inactive) | 54.6 µM (inactive) | > 100 µM (inactive) | 31.8 µM (inactive)
5 | OCC(O)COc1c(Cl)ccc(Cl)c1Cl (stereo unspecified) | > 100 µM | > 100 µM (inactive) | > 100 µM (inactive) | > 100 µM (inactive) | > 100 µM (inactive) | > 100 µM (inactive) | > 100 µM (inactive) | > 100 µM (inactive) | > 100 µM (inactive) | > 100 µM (inactive) | > 100 µM (inactive) | > 100 µM (inactive) | > 100 µM (inactive) |  | > 100 µM (inactive) |  | > 100 µM (inactive) | > 100 µM (inactive) | 
6 | CCOC(=O)c1sc2c(sc(=O)n2-c2ccccc2)c1O | > 100 µM | > 100 µM (inactive) | > 100 µM (inactive) | > 100 µM (inactive) | > 100 µM (inactive) | > 100 µM (inactive) | > 100 µM (inactive) | 67.6 µM (inactive) | > 100 µM (inactive) | > 100 µM (inactive) | > 100 µM (inactive) | 55.7 µM (inactive) | > 100 µM (inactive) |  | 45 µM (inactive) |  | > 100 µM (inactive) | > 100 µM (inactive) | 
7 | CC(=O)O[C@H]1C(N(C)C(=O)c2ccccc2)CC[C@]2(C)C3CC[C@@]4(C)C(CC(O)[C@@H]4C(C)N(C)C)[C@@H]3CCC12 (stereo partly specified) | > 100 µM | > 100 µM (inactive) | > 100 µM (inactive) | > 100 µM (inactive) | > 100 µM (inactive) | > 100 µM (inactive) | > 100 µM (inactive) | 76.9 µM (inactive) | > 100 µM (inactive) | > 100 µM (inactive) | > 100 µM (inactive) | > 100 µM (inactive) | > 100 µM (inactive) |  | > 100 µM (inactive) |  | > 100 µM (inactive) | > 100 µM (inactive) | 
8 | CCN(CC)CCNc1ccc2ncn3c4cc(OC)c(OC)c(O)c4c(=O)c1c23 | 9.91 µM | 3.76 µM (inactive) | 9.06 µM (inactive) | 12.5 µM (inactive) | 11.9 µM (inactive) | 2.78 µM (inactive) | 22.9 µM (inactive) | 1.29 µM (inactive) | 12.9 µM (inactive) | 1.39 µM (inactive) | 5.3 µM (inactive) | 1.24 µM (inactive) | 0.524 µM (active) | 10 µM (inactive) | 0.897 µM (active) | 10.2 µM (inactive) | 14 µM (inactive) | 15.5 µM (inactive) | 13.2 µM (inactive)
9 | COc1cc(C2SCC(=O)N2c2ccc(-c3ccc(-n4c(-c5ccccc5)nc5ccccc5c4=O)cc3)cc2)cc(OC)c1OC (stereo unspecified) | 28.6 µM | 16.6 µM (inactive) | 30.3 µM (inactive) | 19 µM (inactive) | 24.6 µM (inactive) |  | 8.04 µM (inactive) | 23.1 µM (inactive) | 22.2 µM (inactive) | 27.5 µM (inactive) | 43.4 µM (inactive) | 2.21 µM (inactive) | 21.1 µM (inactive) | 21.8 µM (inactive) | 10.6 µM (inactive) | 78 µM (inactive) | 19.1 µM (inactive) | 44.3 µM (inactive) | 20 µM (inactive)
